First: O=C(O)Cc1cn(S(=O)(=O)c2c(Cl)nc3sccn23)c2ccccc12
Second: CC1(c2ccccc2)Cc2cc(OCC(=O)O)c(Cl)c(Cl)c2C1=O (centres undefined)
The melting point of the first is higher: 220 to 222 °C for the first, 168 to 169 °C for the second.

`CCC1(C)Cc2c(C)c(N3CCN(c4ccc(OC)cc4)CC3)c(C)c(C)c2O1` (centres undefined) and `COc1ccc(N2CCN(N)CC2)cc1` cannot be ordered by melting point: 106 to 110 °C for the first, 107 °C for the second.

Compared with `COc1cc(Nc2c(C#N)cnc3cc4cc(OC)c(OCCN5CCOCC5)cc4cc23)c(Cl)cc1F`, `COc1nc2c(C)cc(C)cc2c(-c2ccccc2Cl)c1N(C(N)=O)c1ccc(F)cc1F` is higher in melting point: 204 to 214 °C for the first, 231 to 232 °C for the second.

First: CCOC(=O)CC(=O)CC(O)/C=C/c1c(-c2ccccc2)ccnc1C (centres undefined)
Second: CCCCNC(=O)c1nc(-c2ccccc2)c(-c2ccc(=O)n(C(C)C)n2)s1
The melting point of the first is lower: 83 to 84 °C for the first, 148 °C for the second.

First: COC(=O)C(Cc1ccc(OCCn2c(=O)sc3cc(Cc4ccc(-c5ccccc5)cc4)ccc32)cc1)C(=O)OC
Second: C=CCOc1nc2cccc(C(=O)OC)c2n1Cc1ccc(-c2ccccc2C#N)cc1
The melting point of the first is higher: 122 °C for the first, 118 to 119 °C for the second.

First: O=c1[nH]c2c(Cl)sc(Cl)c2c(=O)c2cscc12
Second: CN1C(=O)CN=C(c2ccccc2)c2c1cc(Cl)c(N)c2Cl
The melting point of the first is higher: 236 to 239 °C for the first, 228 °C for the second.

First: CSc1cccc(-c2ccccc2[N+](=O)[O-])c1
Second: CN1CC(C(Oc2ccccc2[N+](=O)[O-])c2ccccc2)OCC1=O (centres undefined)
The melting point of the first is lower: 42 to 43 °C for the first, 192 to 195 °C for the second.

Compared with `CCOc1nc(N2CCNCC2)nc(N2CCSCC2)c1[N+](=O)[O-]`, `Clc1cc(N2CCC(N3CCN(c4cccc5[nH]ccc45)CC3)CC2)c2ncccc2c1` is higher in melting point: 166 to 168 °C for the first, 224 °C for the second.

`C1=CCc2c3c(c4ccccc4c2=C1)=c1c(c2ccccc2c2ccccc12)=C3` and `CCOCc1cc(Cn2cc(C3c4ccccc4C=Cc4ccccc43)c(=S)[nH]c2=O)cc(C(=O)O)c1` cannot be ordered by melting point: 276 to 278 °C for the first, greater than 240 °C for the second.

First: C=CCc1nc(Cl)nc(Cl)c1OC
Second: Nc1cc(Cl)nc(C(=O)O)c1C=O
The melting point of the first is lower: 61 to 62 °C for the first, 146 to 148 °C for the second.

Compared with `CC(C)(C)c1cc(C(C)(C)C)c2op(Cl)oc3c(C(C)(C)C)cc(C(C)(C)C)cc3c2c1`, `COc1cc(OC)cc(-c2cc(=O)c3ccc(OCC(O)CNC(C)C)cc3o2)c1` (centres undefined) is lower in melting point: 183 to 186 °C for the first, 155 to 156 °C for the second.

First: CC1(C)CC(N)(C(N)=O)CC(C)(C)N1
Second: CCOC(=O)/C=C/c1ccc(OC)c(F)c1
The melting point of the first is higher: 142 to 144 °C for the first, 39 to 41 °C for the second.

Compared with `CCCCCCCC(=O)Oc1nc2c(N)ncnc2n1Cc1ccccc1`, `COC(=O)CCCCCOc1ccc(NC(=O)OCCO)cc1` is lower in melting point: 248 to 250 °C for the first, 69.5 to 71.5 °C for the second.

First: Oc1ncnc2[nH]c(-c3ccncc3)cc12
Second: O=C(Nc1nc(Cl)cc(Cl)n1)NS(=O)(=O)c1cccc2cccnc12
The melting point of the first is higher: greater than 260 °C for the first, 198 to 200 °C for the second.

First: Cc1[nH]cnc1CN1CCc2c(c3cccc(F)c3n2C)C1=O
Second: Cc1nc2c(N)nc3ccccc3c2n1CCC(=O)N1CCOCC1
The melting point of the first is higher: 230 to 233 °C for the first, 166 to 169 °C for the second.

Compared with `c1ccc2c(c1)CC1(CCNCC1)O2`, `CC(=O)Oc1ccc(C=C2CCCc3cc(C)cnc32)cc1` is higher in melting point: 56 to 58.5 °C for the first, 119 to 122 °C for the second.

First: CN(C)c1c(S(=O)C(F)(F)F)c(C#N)nn1-c1c(Cl)cc(C(F)(F)F)cc1Cl (centres undefined)
Second: CN(C)S(=O)(=O)OCCOc1ccc(-n2ccnc2)cc1
The melting point of the first is higher: 154 to 161 °C for the first, 120 to 123 °C for the second.

Compared with `FC(F)=C(F)CCSc1nc(-c2ccc(Cl)cc2)no1`, `Cc1oc(-c2ccco2)nc1COc1ccc(Cn2cc(CCC(=O)O)c(-c3ccc(F)cc3)n2)cc1` is higher in melting point: 49 to 52 °C for the first, 125 to 126 °C for the second.

First: CC(C)(C)c1nc2cc(N3CCCCC3)c(NC(N)=S)cc2s1
Second: [N-]=[N+]=NCC(=O)Nc1ccc(S(=O)(=O)c2cccc(Cl)c2)cc1
The melting point of the first is higher: 228 to 232 °C for the first, 125 to 126 °C for the second.

In the case of `Cc1oc(-c2ccco2)nc1COc1ccc(COc2nn(Cc3ccccc3)cc2C=O)cn1`, the melting point was 104 to 105 °C.

— a melting point compilation (Tetko et al.; mined from patent text by program, amines drawn as free bases though some values may be those of a salt)
